# Assay results taken from publication PMC4763718 (MedChemComm, 2015).
# Molecular target: T1, cyclin G associated kinase (GAK) (Homo sapiens, UniProt O14976)
# T1 sequence (O14976 1-1311): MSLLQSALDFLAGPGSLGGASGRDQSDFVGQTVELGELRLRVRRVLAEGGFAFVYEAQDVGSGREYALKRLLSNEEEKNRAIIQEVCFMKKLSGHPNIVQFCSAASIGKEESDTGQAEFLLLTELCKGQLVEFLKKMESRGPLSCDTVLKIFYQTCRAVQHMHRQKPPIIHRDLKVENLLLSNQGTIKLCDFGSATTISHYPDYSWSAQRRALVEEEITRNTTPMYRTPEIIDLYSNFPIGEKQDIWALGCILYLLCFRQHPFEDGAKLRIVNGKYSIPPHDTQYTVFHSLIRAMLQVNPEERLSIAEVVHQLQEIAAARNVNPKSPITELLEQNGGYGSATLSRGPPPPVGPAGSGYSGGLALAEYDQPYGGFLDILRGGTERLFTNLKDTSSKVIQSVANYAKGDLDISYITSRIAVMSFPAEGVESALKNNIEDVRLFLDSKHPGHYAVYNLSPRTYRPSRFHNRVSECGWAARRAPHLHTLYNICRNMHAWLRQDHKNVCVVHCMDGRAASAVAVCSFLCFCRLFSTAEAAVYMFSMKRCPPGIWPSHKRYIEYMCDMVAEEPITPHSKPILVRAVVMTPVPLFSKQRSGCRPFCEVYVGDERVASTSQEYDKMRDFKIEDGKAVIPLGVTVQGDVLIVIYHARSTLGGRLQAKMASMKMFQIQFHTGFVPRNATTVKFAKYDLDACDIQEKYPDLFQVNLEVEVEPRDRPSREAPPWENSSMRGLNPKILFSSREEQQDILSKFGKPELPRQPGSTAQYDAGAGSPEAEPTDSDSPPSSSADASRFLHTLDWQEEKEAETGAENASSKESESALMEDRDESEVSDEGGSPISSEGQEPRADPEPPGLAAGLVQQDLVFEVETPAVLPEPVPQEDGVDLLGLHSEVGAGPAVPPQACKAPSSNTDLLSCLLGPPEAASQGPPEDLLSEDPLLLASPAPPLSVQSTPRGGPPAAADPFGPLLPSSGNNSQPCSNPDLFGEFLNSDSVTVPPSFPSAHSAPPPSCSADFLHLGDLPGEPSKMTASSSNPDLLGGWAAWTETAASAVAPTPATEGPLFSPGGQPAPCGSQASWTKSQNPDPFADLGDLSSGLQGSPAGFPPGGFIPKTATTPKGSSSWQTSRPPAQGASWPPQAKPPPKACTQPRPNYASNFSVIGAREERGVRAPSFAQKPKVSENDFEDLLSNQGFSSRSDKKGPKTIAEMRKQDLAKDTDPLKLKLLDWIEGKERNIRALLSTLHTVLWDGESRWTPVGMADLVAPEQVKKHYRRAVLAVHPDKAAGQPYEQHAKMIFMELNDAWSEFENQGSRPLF
# Experiment: KINOMEscan competition binding assay
row,SMILES,GAK affinity (in words)
1,COc1ccc(-c2cnc3c(NC(=O)C4CC=CC4)snc3c2)cc1OC [Compound 5g],reduced the affinity to GAK
2,COc1ccc(-c2cnc3c(NC(=O)C4CCCCCC4)snc3c2)cc1OC [Compound 5h],reduced the affinity to GAK
3,COc1ccc(-c2cnc3c(NC(=O)C4CCOCC4)snc3c2)cc1OC [Compound 5i],reduced the affinity to GAK
4,COc1ccc(-c2cnc3c(N4CCN(C(C)C)CC4)snc3c2)cc1OC [Compound 8l],did not lead to any improvement in GAK affinity
5,CCCCN1CCN(c2snc3cc(-c4ccc(OC)c(OC)c4)cnc23)CC1 [Compound 8m],did not lead to any improvement in GAK affinity
6,COc1ccc(-c2cnc3c(N4CCN(c5ccncc5)CC4)snc3c2)cc1OC [Compound 8n],did not lead to any improvement in GAK affinity

# Continued, values first:
row,GAK affinity (in words),SMILES
1,completely abolished GAK affinity,CCCCCOc1snc2cc(-c3ccc(OC)c(OC)c3)cnc12 [Compound 8e]
2,inactive,COc1ccc(-c2cnc3c(N4CCN(C(=O)c5ccccc5)CC4)snc3c2)cc1OC [Compound 8q]

# Test system: J6/JFH(p7-Rluc2A) HCV
# Experiment: not given
# Format: cell-based, hepatitis C virus
row,SMILES,effect on HCV replication (in words)
1,CC(C)Oc1snc2cc(-c3ccsc3)cnc12 [Compound 8j],minimal to no effect
